Common to all, as to type: physicochemical
Data set [1] is described as follows: Octanol-water partition coefficient, log P of noncharged form of compound at 0.15 M ionic strength by stir flask method.
Data set [2] is described as follows: Octanol-water distribution coefficient, log D of the compound at pH 0.82 by stir flask method.
The nature of data set [3]: Octanol-water partition coefficient, log P of zwitter ionic form of compound at 0.15 M ionic strength by stir flask method.
Data set [4] can be described thus: Octanol-water distribution coefficient, log D of the compound at pH 13.18 by stir flask method.
Data set [5] is described as follows: Octanol-water distribution coefficient, log D of the compound at pH 5.4 by stir flask method.
Data set [6] can be described thus: Octanol-water distribution coefficient, log D of the compound at pH 4.96 by stir flask method.

Molecules are shown by their SMILES.

For orientation: logP means a log measure of how a compound divides between an organic and an aqueous phase. Higher therefore signals higher lipophilicity. As a reminder, the logD is lipophilicity at a set pH, counting ionised and neutral species. Read a high logD as a more lipophilic compound. Take `CCOC(=O)C1=C[C@]2(CC)CCCN3CCc4c(n1c1ccccc41)[C@H]32`: the logP in data set [1] was 4.75. Further, the logD in data set [2] is 0.9.

With `CCOC(=O)C1=C[C@]2(CC)CCCN3CCc4c(n1c1ccccc41)[C@@H]32` [VINPOCETINE], the logP in data set [1] was 4.45. For the same molecule, in data set [2], the logD was determined as 0.94.

Consider `CC[C@@]12C=C(C(=O)O)n3c4c(c5ccccc53)CCN(CCC1)[C@H]42`, for which the log partition coefficient (logP) was 3.46 in data set [1] and -1.03 in data set [3]. Moreover, the logD was -0.05 in data set [2], -0.07 in data set [4] and -0.97 in data set [5].

As for `CC[C@@]12C=C(C(=O)O)n3c4c(c5ccccc53)CCN(CCC1)[C@@H]42`, the logP in data set [1] is 3.98; in data set [3] it was -0.22. Moreover, the logD in data set [2] was 0.13; in data set [4], 0.21; in data set [6] it was -0.14.

The record behind these values is ChEMBL document CHEMBL2163255, “Zwitterions can be predominant in membrane penetration of drugs: experimental proof” (J Med Chem, 2012).
